The values that follow come from patent US5733719A, “Method of making an assay compound” (priority 1995, dated 1998).

Counter-ions that a name gives are not always drawn.

One data set concerns aminopeptidase. Briefly: Inhibition of aminopeptidase reaction with (H-L-Asp)2 rhodamine 110. The data set is classed as biochemical. The following applies: approximately 10 mM. The text has this: The chemical nature of the buffer is important to the reactivity of the assay compound with the cellular enzymes. […] In addition, the assay compound hydrolysis by the enzyme occurs at an increased rate of reaction.

Another data set has as its system Grans. In words: Peptidases to distinguish leukemia from non-leukemia, granulocytes. The class given is cell-based, human. The arrangement: unit not given here. The text has this:
(§1) Artificial intelligence was used to analyze data of cellular enzyme functions, and determine normal and disease states. Peptidases were used to distinguish leukemia from non-leukemia (output pattern). For input patterns lymphocyte and granulocyte cell types were used with aminopeptidases, cathepsins and dipeptidylpeptidase enzyme activities. In this Example, illustrated in Tables 6A-6C, three normals and three leukemia patients were used as known output patterns for the neural network to learn (in practice, the larger the learning set the more accurate unknown prediction will be). Unknowns were then presented to the learned algorithm as shown in the test case examples. Clinical diagnosis was confirmed by physicians. The trained neural network was able to correctly classify the leukemia from the non-leukemia.

The subject of a further data set is Lymphs. Briefly: Peptidases to distinguish leukemia from non-leukemia, lymphocytes. The class given is cell-based, human. Set-up: unit not given here.
Excerpt: as §1

In the next data set the test system is enzyme. In words: Effect of dithioerythritol (DTE) on substrate sensitivity. Conditions: dithioerythritol (DTE) at 1 mM. The source says: Modulators are components used to […] the sensitivity of the enzyme for the leaving group. The modulators speed up or slow down the activity of an enzyme by changing the active site. […] Preferred modulators for particular enzymes are included in Table 1.

A short description of another data set: Native free fluorescence. The data set is classed as physicochemical. The text has this: Assays for peptidases using assay compounds generate fluorescence generally in the range of 10^-5 to 10^-6 Molar free rhodamine 110. Therefore, it is preferred that the free rhodamine 110 and blocked peptide impurities in the assay reagent should be removed to a concentration of less than the fluorescence generated by about 1×10^-6 M and more preferably less than the fluorescence generated by about 10^-7 Molar free indicator group. This amounts to a 100,000 photon count using rhodamine 110 as a standard at 10^-7 -10^-8 M, preferably 5×10^-8 M in a 1 cm path length cuvette when measured over 10 min. on a photon counting spectrofluorometer manufactured by the SLM Company of Chicago, Ill. This corresponds to a use level on the flow cytometer where no cellular false positive can be detected for a 10 minute period at the highest sensitivity setting. […] The presence of impurities causes a decrease in the storage stability of the compound, resulting in an increased autohydrolysis which leads to increased background fluorescence. A compound should be free of impurities such that when the compound (or reagent containing the compound) is stored at 4° C. for 30 days, preferably 90 days, more preferably 180 days, most preferably one year, the background fluorescence increases less than 10%, preferably less than 5%, most preferably less than 1% over these time periods, respectively. […]

Data set [1] has as its system acute lympholytic Ficoll prepared lymphocytes. Briefly: Amino peptidase activity in acute lymphocytic leukemia lymphocytes. The data set is classed as cell-based. The following applies: FIG. 4B, log fluorescence at 525 nm v. time. The source says:
The cell's ability to fight off an invader lies within its genetics and therefore cell type. The "readiness" however of any genetically capable group of cells to defend is different. A measure of this "readiness" is manifest in the available proteolytic enzymes contained within vacuoles or on the surface of the cell. The assay compound hydrolysis rate increases with increased mass of enzymes giving a picture of immune competence both in number of cells and activity level. […] Images were generated using Universal Imaging.

A further data set deals with cells. Conditions: even when buffered.
Data set [2] in a line: Effect of sodium chloride on dipeptide reagent. Conditions: 7mM, pH range of 6.5 to 8.7. The text has this: Inhibitors and poisons (or toxins) are components that can be added to reduce the activity of non-targeted enzymes that provide competing reactions for the leaving group. Inhibitors are usually very selective for a particular enzyme. For example, EDTA only works with enzymes requiring Ca^+2, Mg^+2 and some other metals. […] Preferred inhibitors for particular enzymes are included in Table 1.

Protocol for cells: Viability is confirmed with Trypan Blue or PI-FDA over a time period of 10 seconds to 30 minutes. If the viability of the cell sample at between one and three million cells/mL decreases by10% then the salt of the compound is rejected and another salt of the assay compound is synthesized.

Regarding `[Ca+2].[Cl-].[Cl-]` [calcium chloride], the “inhibition of enzyme reaction with (H-L-Asp)2 rhodamine 110” value in the data set on aminopeptidase was “inhibitory”.
Consider `O=C1OC2(c3ccc(NC(=O)[C@@H]4CCCN4)cc3Oc3cc(NC(=O)[C@@H]4CCCN4)ccc32)c2ccccc21` [PRO, (H--L--Pro)2 Rho 110-2TFA], for which the enzyme activity in the data set on Grans (J4 11/21/91 acute leuk.) was found to be 5.77; in the data set with Grans (J4 12/2/91 AL) it was 3.59; with Grans (J4 12/3/91 acute leuk.) it was 3.68; with Grans (J5 11/27/91 AML), 5.92; with Grans (J19 11/27/91 CLL), 5.50; in the data set on Grans (J22 12/2/91 AML), 4.03. Further, the enzyme activity in the data set on Grans (J22 12/9/91 AML) was determined as 3.53; with Grans (N99° normal) it was 4.85; in the data set with Grans (N191 normal), 4.34; with Grans (N192 normal) it was 4.34; with Grans (N193 normal), 4.75; in the data set with Grans (N194 normal) it was 3.75. Moreover, the enzyme activity with Grans (N195 normal) worked out at 4.70; in the data set on Grans (N197 normal), 3.76; in the data set with Grans (N200 normal), 4.04; in the data set on Grans (N201 normal), 6.42; in the data set with Grans (N202 normal), 4.96; with Grans (N206 normal), 6.13. In addition, the enzyme activity in the data set with Grans (P68 tachycardia) worked out at 7.19; in the data set with Grans (P69 pancreatic CA), 5.70; in the data set on Grans (P70 cirrhosis/hemobilia), 0.66; with Grans (P71 ac. pyelonephritis), 6.33; with Lymphs (J4 11/21/91 acute leuk.), 0.47; with Lymphs (J4 12/2/91 AL), 0.29. The enzyme activity in the data set with Lymphs (J4 12/3/91 acute leuk.) worked out at 0.24; with Lymphs (J5 11/27/91 AML), 0.89; in the data set with Lymphs (J19 11/27/91 CLL), 0.44; with Lymphs (J22 12/2/91 AML), 0.40; in the data set with Lymphs (J22 12/9/91 AML) it was 0.44; in the data set with Lymphs (N99° normal) it was 1.02. Also, the enzyme activity amounted to 0.69 with Lymphs (N191 normal); 1.14 in the data set on Lymphs (N192 normal); 0.95 with Lymphs (N193 normal); 0.86 in the data set on Lymphs (N194 normal); 0.88 in the data set on Lymphs (N195 normal); 0.57 with Lymphs (N197 normal). Besides, the enzyme activity in the data set with Lymphs (N200 normal) was found to be 0.74; with Lymphs (N201 normal), 1.10; in the data set with Lymphs (N202 normal) it was 0.89; in the data set on Lymphs (N206 normal), 1.28; with Lymphs (P68 tachycardia), 0.70; with Lymphs (P69 pancreatic CA), 0.66. Further, the enzyme activity with Lymphs (P70 cirrhosis/hemobilia) is given as 0.56; in the data set on Lymphs (P71 ac. pyelonephritis), 0.52. Also, the “effect of DTE on sensitivity” value in the data set on enzyme is given as “decreases the sensitivity”.
Turning to `CC(C)C[C@H](N)C(=O)NCC(=O)Nc1ccc2c(c1)Oc1cc(NC(=O)CNC(=O)[C@@H](N)CC(C)C)ccc1C21OC(=O)c2ccccc21` [tartrate salt of (LeuGly)2 rhodamine 110, (H--L--Leu--Gly)2 Rho 110-2Tartrate], the native free fluorescence in the data set “Native free fluorescence” is 61,000 photons.
As for `NCC(=O)Nc1ccc2c(c1)Oc1cc(NC(=O)CN)ccc1C21OC(=O)c2ccccc21` [GLY, (Gly)2 Rho 110], the enzyme activity with Grans (J4 11/21/91 acute leuk.) is given as 27.79; in the data set on Grans (J4 12/2/91 AL), 47.74; with Grans (J4 12/3/91 acute leuk.) it was 48.53; with Grans (J5 11/27/91 AML), 56.33; in the data set with Grans (J19 11/27/91 CLL), 48.80; with Grans (J22 12/2/91 AML) it was 34.02. Besides, the enzyme activity is 38.47 with Grans (J22 12/9/91 AML); 45.00 in the data set with Grans (N99° normal); 73.20 in the data set on Grans (N191 normal); 43.67 in the data set on Grans (N192 normal); 63.33 in the data set on Grans (N193 normal); 60.30 with Grans (N194 normal). In addition, the enzyme activity in the data set with Grans (N195 normal) is on record as 79.13; in the data set with Grans (N197 normal), 76.88; with Grans (N200 normal) it was 59.39; with Grans (N201 normal), 75.48; in the data set with Grans (N202 normal), 66.22; in the data set with Grans (N206 normal) it was 91.93. For the same molecule, the enzyme activity with Grans (P68 tachycardia) is reported as 100.00; with Grans (P69 pancreatic CA), 88.04; with Grans (P70 cirrhosis/hemobilia), 88.42; with Grans (P71 ac. pyelonephritis), 59.35; with Lymphs (J4 11/21/91 acute leuk.) it was 14.02; in the data set on Lymphs (J4 12/2/91 AL), 27.32. For the same molecule, the enzyme activity in the data set with Lymphs (J4 12/3/91 acute leuk.) is on record as 31.51; in the data set on Lymphs (J5 11/27/91 AML), 28.36; with Lymphs (J19 11/27/91 CLL), 11.39; with Lymphs (J22 12/2/91 AML), 24.50; with Lymphs (J22 12/9/91 AML), 27.14; with Lymphs (N99° normal), 30.68. Also, the enzyme activity turned out to be 43.57 in the data set on Lymphs (N191 normal); 37.47 with Lymphs (N192 normal); 39.30 with Lymphs (N193 normal); 39.76 in the data set on Lymphs (N194 normal); 48.18 in the data set on Lymphs (N195 normal); 42.96 with Lymphs (N197 normal). The enzyme activity with Lymphs (N200 normal) was found to be 42.28; in the data set with Lymphs (N201 normal) it was 45.32; in the data set on Lymphs (N202 normal), 44.55; with Lymphs (N206 normal), 55.56; in the data set with Lymphs (P68 tachycardia), 59.29; with Lymphs (P69 pancreatic CA) it was 67.38. The enzyme activity in the data set with Lymphs (P70 cirrhosis/hemobilia) turned out to be 54.84; in the data set with Lymphs (P71 ac. pyelonephritis), 41.93. The “effect of DTE on sensitivity” value with enzyme is given as “decreases the sensitivity”.
For the molecule `CC(C)C[C@H](N)C(=O)Nc1ccc2c(c1)Oc1cc(NC(=O)[C@@H](N)CC(C)C)ccc1C21OC(=O)c2ccccc21` [LEU, (Leu)2 Rho 110], the enzymatic activity entry in data set [1] is given as “lost their enzymatic activity”.
For the molecule `Br.Cc1ncc(C)n2nc(CCc3nc(-c4ccccc4)cn3C)nc12` [hydrogen bromide (HBr), hydrogen bromide], the effect on cells result in the data set on cells was “kills cells”.
`[Cl-].[Na+]` [sodium chloride]: the “inhibitory effect on dipeptide reagent” value in data set [2] is “slightly inhibitory effect”.
